Patent US10787413B2, “Derivatives of curcuminoids and use thereof as an anticancer agent” (CHINA MEDICAL UNIVERSITY, priority 2016, dated 2020)
Like-named read-outs stand apart in the source and are kept apart here.

Tests used:
[1] = tested on: MDA-MB-231 breast cancer cell; experiment: MTT cell viability assay, MDA-MB-231 breast cancer cell; assay type: cell-based, human; details: Homo sapiens
Method: (§1) Cell viability was evaluated by measuring the reduction in MTT to yield blue formazan. Cells were cultured in 96-well plates, allowed to attach overnight, and then treated with compounds. After treatment, MTT solution (1 mg/ml) was added to each well, and plates were incubated for another 4 h.

PC3 prostate cancer cell = experiment: MTT cell viability assay, PC3 prostate cancer cell; assay type: cell-based
Method: as §1, with “h. Medium were removed, blue formazan was dissolved in DMSO, and the absorbance was read at 570 nm^20.” for “h.”

[2] = tested on: HCT-116 colon cancer cell; experiment: MTT cell viability assay, HCT-116 colon cancer cell; assay type: cell-based; details: Homo sapiens
Method: as §1, with “h. Medium were removed, blue formazan was dissolved in DMSO, and the absorbance was read at 570 nm^20.” for “h.”

MDA-MB-231 Xenograft = details: Doxorubicin alone, IP 1 mg/kg/day
Method: Female nu/nu mice (5 weeks old) were from National Laboratory Animal Center, Taipei, Taiwan. […] MDA-MB-231 breast cancer cells (5×10^6 cells per mouse) were suspended in 0.1 ml of Matrigel solution (50% (v/v) Matrigel in PBS) and inoculated into the mammary fat pads of the mice. […] Compounds was administered P.O. once every day for 32 days. Tumor size and mouse body weight were measured once every 4 days, and tumor volume (mm3) was calculated using the equation: length×(width)^2×0.5. At the end of experiments, mice were sacrificed and tumor nodules were dissected and weighed.

[3] = MDA-MB-231, 24 h, MDA-MB-231, treated 24 hours, read-out: IC50 24 hours
[4] = MDA-MB-231, 48 h, MDA-MB-231, treated 48 hours, read-out: IC50 48 hours
[5] = MDA-MB-231, 72 h, MDA-MB-231, treated 72 hours, read-out: IC50 72 hours
[6] = PC-3, treated 24 hours, read-out: IC50 24 hours
[7] = PC-3, treated 48 hours, read-out: IC50 48 hours
[8] = PC-3, treated 72 hours, read-out: IC50 72 hours
[9] = HCT-116, treated 24 hours, read-out: IC50 24 hours
[10] = HCT-116, treated 48 hours, read-out: IC50 48 hours
[11] = HCT-116, treated 72 hours, read-out: IC50 72 hours

COc1ccc(/C=C/C(O)=C/C(=O)/C=C/c2ccc(OC(=O)C(C)(CO)CO)c(OC)c2)cc1OC [Compound 33, 4-((1E,4Z,6E)-7-(3,4-dimethoxyphenyl)-5-hydroxy-3-oxohepta-1,4,6-triene-1-yl)-2-methoxyphenyl 3-hydroxy-2-(hydroxymethyl)-2-methylpropanoate]
IC50 [1, 3]: 4.69 ± 0.73 µM
IC50 [1, 4]: 3.12 ± 0.17 µM
IC50 [1, 5]: 2.55 µM
IC50 (PC3 prostate cancer cell; [6]): 7.77 ± 0.88 µM
IC50 (PC3 prostate cancer cell; [7]): 7.85 ± 0.81 µM
IC50 (PC3 prostate cancer cell; [8]): 7.64 ± 0.75 µM
melting point: 99 to 101 °C
IC50 [2, 9]: 10.5 ± 0.64 µM
IC50 [2, 10]: 7.56 ± 0.77 µM
IC50 [2, 11]: 4.77 ± 0.24 µM

CCC(CC)(C(=O)/C=C/c1ccc(OC(=O)C(C)(CO)CO)c(OC)c1)C(=O)/C=C/c1ccc(OC(=O)C(C)(CO)CO)c(OC)c1 [Compound 35b, ((1E,6E)-4,4-Diethyl-3,5-dioxohepta-1,6-diene-1,7-diyl)bis(2-methoxy-4,1-phenylene) bis(3-hydroxy-2-(hydroxymethyl)-2-methylpropanoate)]
IC50 [1, 3]: 8.64 ± 0.27 µM
IC50 [1, 5]: 2 ± 0.02 µM
IC50 (PC3 prostate cancer cell; [6]): 8.7 ± 0.14 µM
IC50 (PC3 prostate cancer cell; [7]): 3.67 ± 0.25 µM
IC50 (PC3 prostate cancer cell; [8]): 2.16 ± 0.12 µM
melting point: 189 to 191 °C
IC50 [2, 9]: 7.71 ± 0.03 µM
IC50 [2, 11]: 1.74 ± 0.02 µM

C=CCC(CC=C)(C(=O)/C=C/c1ccc(OC(=O)C(C)(CO)CO)c(OC)c1)C(=O)/C=C/c1ccc(OC(=O)C(C)(CO)CO)c(OC)c1 [Compound 35e, ((1E,6E)-4,4-diallyl-3,5-dioxohepta-1,6-diene-1,7-diyl)bis(2-methoxy-4,1-phenylene) bis(3-hydroxy-2-(hydroxymethyl)-2-methylpropanoate)]
IC50 [1, 3]: 9.02 ± 0.5 µM
IC50 [1, 5]: 0.71 µM
IC50 (PC3 prostate cancer cell; [6]): 4.24 ± 0.18 µM
IC50 (PC3 prostate cancer cell; [7]): 3.54 ± 0.26 µM
IC50 (PC3 prostate cancer cell; [8]): 2.63 ± 0.77 µM
melting point: 195 to 197 °C
IC50 [2, 9]: 2.18 ± 0.22 µM
IC50 [2, 11]: 0.71 ± 0.01 µM

COc1cc(/C=C/C(=O)C(CO)(CO)C(=O)/C=C/c2ccc(OC(=O)C(C)(CO)CO)c(OC)c2)ccc1OC(=O)C(C)(CO)CO [Compound 40, ((1E,6E)-4,4-bis(hydroxymethyl)-3,5-dioxohepta-1,6-diene-1,7-diyl)bis(2-methoxy-4-phenylene) bis(3-hydroxy-2-(hydroxymethyl)-2-methylpropanoate)]
IC50 [1, 3]: > 100 µM
IC50 [1, 4]: 84.9 ± 1.67 µM
IC50 [1, 5]: 57.9 ± 2.73 µM
IC50 (PC3 prostate cancer cell; [6]): > 100 µM
IC50 (PC3 prostate cancer cell; [7]): > 100 µM
IC50 (PC3 prostate cancer cell; [8]): 74.6 ± 2.04 µM
melting point: 234 to 237 °C
IC50 [2, 9]: > 100 µM
IC50 [2, 10]: 69.1 ± 3.11 µM
IC50 [2, 11]: 58.04 ± 0.53 µM

COc1ccc(/C=C/C(=O)C(CO)(CO)C(=O)/C=C/c2ccc(OC)c(OC)c2)cc1OC [Compound 42, (1E,6E)-1,7-bis(3,4-dimethoxyphenyl)-4,4-bis(hydroxymethyl)hepta-1,6-diene-3,5-dione]
IC50 [1, 3]: > 100 µM
IC50 [1, 5]: 9.02 ± 1.13 µM
IC50 (PC3 prostate cancer cell; [6]): 77.2 ± 2.34 µM
IC50 (PC3 prostate cancer cell; [7]): 61.2 ± 2.3 µM
IC50 (PC3 prostate cancer cell; [8]): 26.1 ± 0.81 µM
IC50 [2, 9]: 89.65 ± 0.49 µM
IC50 [2, 10]: 8 ± 0.6 µM
IC50 [2, 11]: 7.18 ± 0.68 µM

COc1ccc(/C=C/C(=O)C(COC(=O)C(C)(CO)CO)(COC(=O)C(C)(CO)CO)C(=O)/C=C/c2ccc(OC)c(OC)c2)cc1OC [Compound 43, 2,2-bis((E)-3-(3,4-dimethoxyphenyl)acryloyl)propane-1,3-diylbis(3-hydroxy-2-(hydroxymethyl)-2-methylpropanoate)]
IC50 [1, 3]: 83 ± 0.17 µM
IC50 [1, 5]: 17.3 ± 0.1 µM
IC50 (PC3 prostate cancer cell; [6]): 67.7 ± 1.76 µM
IC50 (PC3 prostate cancer cell; [7]): 52.2 ± 1.23 µM
IC50 (PC3 prostate cancer cell; [8]): 51.3 ± 0.39 µM
IC50 [2, 9]: 64.7 ± 1.56 µM
IC50 [2, 11]: 25.1 ± 0.5 µM

COc1ccc(/C=C/C(=O)C(COC(C)=O)(COC(C)=O)C(=O)/C=C/c2ccc(OC)c(OC)c2)cc1OC [Compound 44, 2,2-bis((E)-3-(3,4-dimethoxyphenyl)acryloyl)propane-1,3-diyl diacetate]
IC50 [1, 3]: 7.21 ± 0.18 µM
IC50 [1, 4]: 0.9 ± 0.03 µM
IC50 [1, 5]: 0.61 ± 0.1 µM
IC50 (PC3 prostate cancer cell; [6]): 3.68 ± 0.11 µM
IC50 (PC3 prostate cancer cell; [7]): 3.07 ± 0.37 µM
IC50 (PC3 prostate cancer cell; [8]): 0.85 ± 0.07 µM
IC50 [2, 9]: 6.33 ± 1.01 µM
IC50 [2, 10]: 3.66 ± 0.25 µM
IC50 [2, 11]: 1.51 ± 0.55 µM

COc1cccc2c1C(=O)c1c(O)c3c(c(O)c1C2=O)C[C@@](O)(C(=O)CO)C[C@@H]3O[C@H]1C[C@H](N)[C@H](O)[C@H](C)O1 [Doxorubicin, reference compound]
reduction of MDA-MB-231 tumor weight compared with control group (MDA-MB-231 Xenograft): 60%
